Measured values reported in ChEMBL document CHEMBL6103652, “Niacin Ester Derivative of Brefeldin A as a Potential Dual-Target Arf1/BMX Inhibitor for Bladder Cancer” (J Nat Prod, 2025).

How the values were obtained:
[1] = tested on: T-24; assay: Antiproliferative activity against human T24 cells assessed as inhibition of cell proliferation at 0.25 uM incubated for 72 to 120 hrs by MTT assay relative to control; type: functional; details: time 72-120 hrs
[2] = Cytotoxicity against human LO2 cells measured after 72 hrs by MTT assay; type: toxicity, cell-based, L02
[3] = tested on: Bel-7402; assay: Antiproliferative activity against human Bel-7402 cells assessed as inhibition of cell proliferation measured after 72 hrs by MTT assay; type: functional, cell-based; details: Bel-7402, 72 h
[4] = tested on: Huh-7; assay: Antiproliferative activity against human Huh-7 cells assessed as inhibition of cell proliferation measured after 72 hrs by MTT assay; type: functional, cell-based; details: Huh-7, 72 h
[5] = tested on: A549; assay: Antiproliferative activity against human A549 cells assessed as inhibition of cell proliferation measured after 72 hrs by MTT assay; type: functional, cell-based; details: A549, 72 h
[6] = tested on: T-24; assay: Antiproliferative activity against human T24 cells assessed as inhibition of cell proliferation measured after 72 hrs by MTT assay; type: functional, cell-based; details: T-24, 72 h
[7] = Antiproliferative activity against […] MB49 cells assessed as inhibition of cell proliferation measured after 72 hrs by MTT assay; type: functional, cell-based; details: MB49, 72 h
[8] = tested on: L1210; assay: Antiproliferative activity against mouse L1210 cells assessed as inhibition of cell proliferation measured after 72 hrs by MTT assay; type: functional, cell-based; details: L1210, 72 h
[9] = tested on: HCT-116; assay: Antiproliferative activity against human HCT-116 cells assessed as inhibition of cell proliferation measured after 72 hrs by MTT assay; type: functional, cell-based; details: HCT-116, 72 h
[10] = tested on: HT-29; assay: Antiproliferative activity against human HT-29 cells assessed as inhibition of cell proliferation measured after 72 hrs by MTT assay; type: functional, cell-based; details: HT-29, 72 h

Structure (SMILES)	inhibition at 0.25 µM [1]	IC50 at 72 h [2]	IC50 [3]	IC50 [4]	IC50 [5]	IC50 [6]	IC50 [7]	IC50 [8]	IC50 [9]	IC50 [10]
C[C@H]1CCC/C=C/[C@@H]2C[C@H](OC(=O)c3cccnc3)C[C@H]2[C@H](O)/C=C/C(=O)O1	< 40%									
C[C@H]1CCC/C=C/[C@@H]2C[C@H](O)C[C@H]2[C@H](O)/C=C/C(=O)O1 [BREFELDIN A]		140 nM	120 nM	180 nM	60 nM	80 nM	2160 nM	1570 nM	100 nM	70 nM
COc1cccc2c1C(=O)c1c(O)c3c(c(O)c1C2=O)C[C@@](O)(C(=O)CO)C[C@@H]3O[C@H]1C[C@H](N)[C@H](O)[C@H](C)O1 [DOXORUBICIN]				620 nM	440 nM	250 nM	> 1000 nM	< 1000 nM	< 1000 nM	420 nM
C[C@H]1CCC/C=C/[C@@H]2C[C@H](OC(=O)c3cccnc3)C[C@H]2[C@H](OC(=O)c2cccnc2)/C=C/C(=O)O1	< 40%									
